Reference: paper PMC9303367, “Synthesis of Aminoethyl‐Substituted Piperidine Derivatives as σ1 Receptor Ligands with Antiproliferative Properties” (Chemmedchem, 2022)
Read-outs that look alike come from different tables or passages of the source.

What was measured:
σ2 receptor [1] = target: T1, σ2 receptor (Rattus norvegicus, UniProt Q5U3Y7); assay: σ2 receptor radioligand binding assay ([3H]DTG with excess (+)-pentazocine, rat liver membranes); settings: for Ki: read-out: σ2 affinity K i±SEM (n=3), rat liver membranes, [3H]DTG + (+)-pentazocine; for inhibition at 1 µM: test compound concentration 1 μM
T1 construct: The thawed rat liver membrane preparation; tissue Harlan-Winkelmann, Borchen, Germany; host or cells: rat liver membrane preparation
T1 sequence (Q5U3Y7 1-176): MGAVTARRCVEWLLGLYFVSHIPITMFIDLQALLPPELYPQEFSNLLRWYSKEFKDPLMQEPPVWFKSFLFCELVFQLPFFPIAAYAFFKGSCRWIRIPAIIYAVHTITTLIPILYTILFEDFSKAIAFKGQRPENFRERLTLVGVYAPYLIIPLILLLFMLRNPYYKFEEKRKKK

[2] = tested on: human non-small cell lung cancer cell line A427; assay: A427 tumor cell proliferation (confluence) assay, IncuCyte S3 live cell imaging
Protocol: In particular the confluence and IC 50 values were determined.
Live Cell imaging using the IncuCyte® S3 Live Cell Analysis System
The measurement of the cell confluence and the determination of the IC50 values were
performed with the IncuCyte® S3 Live Cell Analysis System (Essen BioScience, Ltd.,
Royston, Hertfordshire, UK)
5.4. Preparation of 96-well plates
For the preparation of the 96-well plates for the Live Cell Imager, A427 cells from the flask
were detached and centrifuged. The pellet was resuspended in 20 mL of the medium
using the vortexer. 1 mL was used to determine the number of cells and the volume
required for 8,000-12,000 cells was calculated. This volume was then added to each well
Switzerland) and the well was filled up to a total volume of 150 µL with medium.
At a confluence of 30-40 % the test compounds were added. Dilutions of concentrations
of 200, 100, 40, 20, 10 and 4 µM were prepared in medium with 2 % DMSO. 50 µL of
each dilution were added to the wells, resulting in a final assay concentration of 50, 25,
10, 5, 2.5 and 1 µM, respectively. Each concentration was measured in triplicates on each
plate and on three different days.
5.5. Measurement of cell confluence
The cell confluence was measured using the IncuCyte® S3. For the scanning with the
at a 10-fold magnification. Four pictures were taken from each well every 2 h until the
growth curve of the cells reached a plateau (approx. 5 d). The mask for the analysis of
adjustment size of -1 pixel and an area filter of minimum 200 µm2. After the analysis, a
graph showing the development of the confluence over time was produced.
5.6. Competitive confluence assay
The plates were prepared as described above with the exception that the cells were grown
in 100 µL instead of 150 µL of medium. After the cell confluence reached 30-40 %, the
(final concentration: 10 µM).

σ1 receptor [3] = target: T2, σ1 receptor (Cavia porcellus, UniProt Q60492); assay: σ1 receptor radioligand binding assay ([3H]-(+)-pentazocine, guinea pig brain homogenate); settings: for Ki: guinea pig brain, [3H]-(+)-pentazocine, piperidines tested as cis/trans mixtures; for σ1 : σ2 selectivity: Ki(σ2)/Ki(σ1)
T2 construct: The thawed membrane preparation of guinea pig brain cortex; tissue Harlan-Winkelmann, Borchen, Germany; host or cells: guinea pig brain (cortex) membrane homogenate
T2 sequence (Q60492 whole entry): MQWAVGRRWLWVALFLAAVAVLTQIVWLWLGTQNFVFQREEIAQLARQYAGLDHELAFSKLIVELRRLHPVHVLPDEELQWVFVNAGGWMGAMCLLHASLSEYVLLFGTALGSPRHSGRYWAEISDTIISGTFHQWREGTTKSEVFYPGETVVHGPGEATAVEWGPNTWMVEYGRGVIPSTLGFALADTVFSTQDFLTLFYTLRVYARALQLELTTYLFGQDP

water solubility = type: physicochemical; settings: at higher concentrations
[4] = logD7.4 by micro shake flask method (n-octanol / MOPS buffer pH 7.4, MS); type: physicochemical; settings: read-out: logD7.4 (exp., n=3)
Protocol: However, the penalty for increased hydrolytic stability and σ1 receptor affinity of tetrahydropyrans 2 and cyclohexanes 3 is an increased molecular lipophilicity. In Figure 1 the calculated clogP values of the σ1 ligands 1–3 and one designed piperidine 4 a are summarized. In order to confirm the predicted clogP values, the logD7.4 values of the σ1 ligands 1–4 a were also determined experimentally using the micro shake flask method.[39, 40]
In order to argue with reliable lipophilicity values, the logD7.4 values of key compounds were determined experimentally following our micro‐shake‐flask protocol.[39, 40] According to this method, each compound of interest was distributed between an n‐octanol layer and an aqueous MOPS buffer pH 7.4. Subsequently, the amount of compound in the buffer layer was determined by mass spectrometry.

[5] = tested on: androgen negative human prostate cancer cells DU145; assay: DU145 cell growth inhibition, sulforhodamine B staining, 72 h; type: cell-based; settings: 72 h incubation, n=3, read-out: cytotoxicity (DU145) IC 50
Protocol: In the assay, DU145 tumor cells were incubated in 96‐well plates for 24 h. Different concentrations of the test compounds were added and after incubation for additional 72 h, the amount of living cells was recorded by staining with Sulforhodamine B.[62] In Table 3 the activity of the prototypical σ1 antagonists NE‐100 and S1RA is included.
6. Growth inhibition of DU145 tumor cells
DU145 cells were purchased from ATCC and maintained in adherent conditions in RPMI 1640 medium (21875-034, Gibco®) supplemented with 2 % (S)-glutamine, 10 % fetal […]
Gibco®). For the proliferation assays, DU145 cells were seeded at a density of 2 x 10^3 cells/well in 96-well tissue culture plates. 24 h later, the cells were treated with the […]
Then, the cells were fixed with 10 % (w/v) trichloroacetic acid and stained with sulforhodamine B for 30 min. The excess of the dye was removed by washing repeatedly with 1 % (v/v) acetic acid and the protein-bound dye was solubilized with Tris base solution for optical density (OD) measurement at 510 nm with a microplate reader. Cell proliferation and viability were expressed as percentages relative to those of DMSO treated cells. The data represent the results from three independent experiments. Statistical analysis was done using T-test and Anova. Figure […]
and two reference σ1 receptor antagonists.

σ1 receptor [6] = settings: read-out: σ1 affinity K i±SEM, cited from earlier work
σ1 receptor [7] = tested on: σ1 receptor; set-up: method as in PMID 21444132, PMID 21598296; settings: mouse capsaicin assay; cited from earlier work
σ2 receptor [8] = target: T1, σ2 receptor; settings: lead compounds 1–3; read-out: σ2 affinity K i±SEM; cited from earlier work
σ1 receptor [9] = target: T2, σ1 receptor; settings: cited from earlier work
[10] = read-out: σ1 affinity K i±SEM (n=3)
[11] = lead compounds 1–3 (enantiomers), read-out: σ1 affinity K i±SEM

SMILES: c1ccc(CNCCC2CCNC(c3ccccc3)C2)cc1 (stereo not drawn) [4a, cis‐ and trans‐N‐Benzyl‐2‐(2‐phenylpiperidin‐4‐yl)ethan‐1‐amine]
- Ki (σ2 receptor [1]): 372 nM
- IC50 ([2]; Homo sapiens, A-427, 120 h, read-out: Inhibition of cell confluency IC50 ± SD, A427 cells, last time point (approx. 5 d), n = 3): 18000 nM
- functional behaviour at σ1 receptor in A427 tumor cell proliferation assay ([2]; effect reduced by σ1 agonist (+)-pentazocine (10 μM)): σ1 receptor antagonist
- IC50 ([2]; read-out: Inhibition of cell confluency IC50 ± SD, A427 cells, last time point (approx. 5 d), n = 3): 17000 nM
- Ki (σ1 receptor [3]; [10]): 165 nM
- water solubility (water solubility): good water solubility
- logD [4]: -0.79 ± 0.07

SMILES: c1ccc(CCCNCCC2CCNC(c3ccccc3)C2)cc1 (stereo not drawn) [4b, cis‐ and trans‐N‐(3‐Phenylpropyl)‐2‐(2‐phenyl‐piperidin‐ 4‐yl)ethan‐1‐amine]
- inhibition at 1 µM (σ2 receptor [1]): 0%
- Ki (σ1 receptor [3]; σ1 affinity K i±SEM (n=3)): 849 nM

SMILES: Cc1ccc(S(=O)(=O)N2CCC(CCNCc3ccccc3)CC2c2ccccc2)cc1 (stereo not drawn) [13a, cis‐ and trans‐N‐Benzyl‐2‐(2‐phenyl‐1‐tosyl‐piperidin‐ 4‐yl)ethan‐1‐amine]
- melting point: 79 °C
- σ1 : σ2 selectivity (σ1 receptor [3]): 13
- Ki (σ1 receptor [3]; σ1 affinity K i±SEM (n=3)): 57 ± 21 nM

SMILES: Cc1ccc(S(=O)(=O)N2CCC(CCNCCCc3ccccc3)CC2c2ccccc2)cc1 (stereo not drawn) [13b, cis‐ and trans‐N‐(3‐Phenylpropyl)‐2‐(2‐phenyl‐1‐tosylpiperidin‐4‐yl)ethan‐1‐amine]
- σ1 : σ2 selectivity (σ1 receptor [3]): 2
- Ki (σ1 receptor [3]; σ1 affinity K i±SEM (n=3)): 291 ± 139 nM

SMILES: CN1CCC(CCNCc2ccccc2)CC1c1ccccc1 (stereo not drawn) [18a, cis‐ and trans‐N‐Benzyl‐2‐(1‐methyl‐2‐phenyl‐piperidin‐ 4‐yl)ethan‐1‐amine]
- σ1 : σ2 selectivity (σ1 receptor [3]): 61
- Ki (σ1 receptor [3]; [10]): 7.9 ± 0.2 nM
- logD [4]: 0.52 ± 0.01

SMILES: CCN1CCC(CCNCc2ccccc2)CC1c1ccccc1 (stereo not drawn) [18b, cis‐ and trans‐N‐Benzyl‐2‐(1‐ethyl‐2‐phenyl‐piperidin‐ 4‐yl)ethan‐1‐amine]
- σ1 : σ2 selectivity (σ1 receptor [3]): 1
- Ki (σ1 receptor [3]; σ1 affinity K i±SEM (n=3)): 129 ± 38 nM

SMILES: CN1CC[C@H](CCNCCCc2ccccc2)C[C@@H]1c1ccccc1 [19a, cis‐N‐(2‐(1‐Methyl‐2‐phenylpiperidin‐4‐yl)‐ethyl)‐3‐ phenylpropan‐1‐amine]
- inhibition at 1 µM (σ2 receptor [1]): 0%
- σ1 : σ2 selectivity (σ1 receptor [3]): >20
- Ki (σ1 receptor [3]; σ1 affinity K i±SEM (n=3)): 50 ± 17 nM

SMILES: CCN1CC[C@H](CCNCCCc2ccccc2)C[C@@H]1c1ccccc1 [19b, cis‐N‐(2‐(1‐Ethyl‐2‐phenylpiperidin‐4‐yl)ethyl)‐3‐phenylpropan‐1‐amine]
- preference for the σ2 receptor over the σ1 receptor (σ2 receptor [1]): 7 fold
- Ki (σ1 receptor [3]; σ1 affinity K i±SEM (n=3)): 2400 nM

SMILES: CN1CCC(CCNCC2CCCCC2)CC1c1ccccc1 (stereo not drawn) [20a, cis‐ and trans‐N‐(Cyclohexylmethyl)‐2‐(1‐methyl‐ 2‐phenylpiperidin‐4‐yl)ethan‐1‐amine]
- IC50 ([5]; Homo sapiens, DU-145): 4900 nM
- σ1 : σ2 selectivity (σ1 receptor [3]): 18
- Ki (σ1 receptor [3]; σ1 affinity K i±SEM (n=3)): 16 ± 5 nM

SMILES: CN(CCC1CCN(C)C(c2ccccc2)C1)Cc1ccccc1 (stereo not drawn) [21a, cis‐ and trans‐N‐Benzyl‐N‐methyl‐2‐(1‐methyl‐ 2‐phenylpiperidin‐4‐yl)ethan‐1‐amine]
- IC50 ([5]; Homo sapiens, DU-145): 5500 nM
- Ki (σ2 receptor [1]): 77 ± 5 nM
- σ1 : σ2 selectivity (σ1 receptor [3]): 4
- Ki (σ1 receptor [3]; [10]): 19 ± 9 nM
- Ki (σ1 receptor [3]; σ1 affinity K i±SEM (n=3)): < 27 nM

SMILES: CN1CCC(CCN2CCN(c3ccccc3)CC2)CC1c1ccccc1 (stereo not drawn) [22a, cis‐ and trans‐1‐(2‐(1‐Methyl‐2‐phenyl‐ piperidin‐4‐yl)ethyl)‐4‐phenylpiperazine]
- IC50 ([5]; Homo sapiens, DU-145): 4000 nM
- Ki (σ2 receptor [1]): 1600 nM
- σ1 : σ2 selectivity (σ1 receptor [3]): 59
- Ki (σ1 receptor [3]; [10]): 27 ± 11 nM
- Ki (σ1 receptor [3]; σ1 affinity K i±SEM (n=3)): < 27 nM

SMILES: CC(C)=CCN1CC[C@]2(C)c3cc(O)ccc3C[C@H]1[C@H]2C [(+)‐pentazocine, reference compound]
- Inhibition of cell confluency IC50 ± SD ([2]; A427 cells, last time point (approx. 5 d), n = 3): no effect

SMILES: CCCN(CCC)CCc1ccc(OC)c(OCCc2ccccc2)c1 [NE‐100, reference compound]
- IC50 [5]: > 10000 nM
- Ki (σ1 receptor [6]; NE-100): 1.3 nM

SMILES: Cc1cc(OCCN2CCOCC2)nn1-c1ccc2ccccc2c1 [S1RA, reference compound]
- IC50 [5]: > 10000 nM
- Ki (σ1 receptor [6]; S1RA): 17 ± 7 nM

SMILES: c1ccc(CNCCC2CCOC(c3ccccc3)O2)cc1 (stereo not drawn) [compound 1]
- antiallodynic activity in vivo (σ1 receptor [7]): high antiallodynic activity
- Ki (σ2 receptor [8]): 4200 nM
- logD [4]: 1.36 ± 0.02
- Ki (σ1 receptor [9]; 1,3-dioxane 1, read-out: σ1 affinity K i): 19 nM
- Ki (σ1 receptor [9]; [11]): 6 ± 1 nM

SMILES: c1ccc(CNCCC2CCCC(c3ccccc3)O2)cc1 (stereo not drawn) [compound 2]
- Ki (σ2 receptor [8]): 378 nM
- logD [4]: 2.52 ± 0.05
- Ki (σ1 receptor [9]; [11]): 1.6 ± 0.2 nM

SMILES: c1ccc(CNCCC2CCCC(c3ccccc3)C2)cc1 (stereo not drawn) [compound 3]
- Ki (σ2 receptor [8]): 49 ± 31 nM
- logD [4]: 3.25 ± 0.02
- Ki (σ1 receptor [9]; [11]): 0.61 ± 0.1 nM
- σ1 : σ2 selectivity (σ1 receptor [9]; lead compounds 1–3): 80
